In US20140349989A1, “COMPOUNDS AND THERAPEUTIC USES THEREOF” (Alzheimer's Institute of America, priority 2011, published 2014):
Where two headings read alike, the source gives them in different places.

Experiment: Cytotoxicity Assay (HCT116, CellTiter-Glo)
Type: cell-based
Settings: human
Protocol: HCT116 cells were seeded in 96 well plates (Greiner Bio-One, Monroe, N.C.) and allowed to settle overnight. Test compound dissolved in dimethyl sulfoxide (DMSO) was added and drug incubation proceeded for 72 hours. When applicable, a 1000× solution of nicotinic acid (NA; Sigma-Aldrich, St. Louis, Mo.) dissolved in water was generated, and 1×NA (10 μM final concentration) was added at the same time as the test compound. After 72 hour, 50 μL of CellTiter-Glo Luminescent Cell Viability Assay reagent (Promega Corporation, Madison, Wis.) was added to cells in 200 μL of cellular media. After a proscribed incubation period, luminescence was measured using a TopCount NXT plate reader (PerkinElmer, Waltham, Mass.).

[1] = HCT116 cells, 72 hours drug incubation, CellTiter-Glo luminescence, read-out: HCT116 cell cytotoxicity IC50

O=C(NCc1cccnc1)Nc1ccc(-n2cc(CCN3CCC(F)(F)C3)c3ccccc32)cc1 [Compound 69, 1-(4-{3-[2-(3,3-Difluoropyrrolidin-1-yl)ethyl]-1H-indol-1-yl}phenyl)-3-(pyridin-3-ylmethyl) urea]
IC50 at 72 h [1]: < 100 nM

O=C(NCc1cccnc1)Nc1ccc(-n2c(Cl)c(C(=O)N3CCN(C4CCCCC4)CC3)c3ccccc32)cc1 [Compound 70, 1-(4-{2-Chloro-3-[(4-cyclohexyl-piperazin-1-yl)carbonyl]-1H-indol-1-yl}phenyl)-3-(pyridin-3-ylmethyl)urea]
IC50 at 72 h [1]: < 100 nM

C[C@H](O)C(=O)N1CCC2(CC1)CN(c1ccc(NC(=O)NCc3cccnc3)cc1)c1ccccc12 [Compound 71, 1-(4-{1′-[(2S)-2-Hydroxypropanoyl]spiro[indole-3,4′-piperidin]-1(2H)-yl}phenyl)-3-(pyridin-3-ylmethyl) urea]
IC50 at 72 h [1]: < 100 nM

O=C(NCc1cccnc1)Nc1ccc(-n2cc(-c3nccn3CCN3CCCC3)c3ccccc32)cc1 [Compound 72, 1-(Pyridin-3-ylmethyl)-3-[4-(3-{1-[2-(pyrrolidin-1-yl)ethyl]-1H-imidazol-2-yl}-1H-indol-1-yl)phenyl] urea]
IC50 at 72 h [1]: < 100 nM

Cc1c(-c2ccccc2)c(C(=O)N2CCC(N3CCCCC3)CC2)nn1-c1ccc(NC(=O)NCc2cccnc2)cc1 [Compound 73, 1-{4-[3-(1,4′-Bipiperidin-1′-ylcarbonyl)-5-methyl-4-phenyl-1H-pyrazol-1-yl]phenyl}-3-(pyridin-3-ylmethyl)urea]
IC50 at 72 h [1]: < 100 nM

O=C(NCc1cccnc1)Nc1ccc(-n2nc(C(=O)N3CCC(N4CCCC4)CC3)cc2C2CC2)cc1 [Compound 74, 1-[4-(5-Cyclopropyl-3-{[4-(pyrrolidin-1-yl)piperidin-1-yl]carbonyl}-1H-pyrazol-1-yl)phenyl]-3-(pyridin-3-ylmethyl)urea]
IC50 at 72 h (HCT116 cell cytotoxicity IC50): ≥ 100 nM

O=C(NCc1cccnc1)Nc1ccc(-c2nn(CCN3CCCCC3)c3ccccc23)cc1 [Compound 75, 1-[4-[1-[2-(1-piperidyl)ethyl]indazol-3-yl]phenyl]-3-(3-pyridylmethyl)urea]
IC50 at 72 h [1]: < 100 nM

CN(c1nn(-c2ccc(NC(=O)NCc3cccnc3)cc2)c2ccccc12)C1CCNC1 (stereo not shown) [Compound 76, 1-(4-{3-[Methyl (pyrrolidin-3-yl)amino]-1H-indazol-1-yl}phenyl)-3-(pyridin-3-ylmethyl)urea]
IC50 at 72 h [1]: < 100 nM

Cc1c(C(=O)N2CCC(N3CCC(F)(F)CC3)CC2)c2ccccc2n1-c1ccc(NC(=O)NCc2cccnc2)cc1 [Compound 77, 1-(4-{3-[(4,4-Difluoro-1,4′-bipiperidin-1′-yl)carbonyl]-2-methyl-1H-indol-1-yl}phenyl)-3-(pyridin-3-ylmethyl)urea]
IC50 at 72 h [1]: < 100 nM

CCOC(=O)c1c(C)n(-c2ccc(NC(=O)NCc3cccnc3)cc2)c2ccccc12 [Compound 79, Ethyl 2-methyl-1-(4-{[(pyridin-3-ylmethyl)carbamoyl]amino}phenyl)-1H-indole-3-carboxylate]
IC50 at 72 h (HCT116 cell cytotoxicity IC50): ≥ 100 nM

O=C(NCc1cccnc1)Nc1ccc(N2CC3(CCNCC3)c3ccccc32)cc1 [Compound 80, 1-(Pyridin-3-ylmethyl)-3-[4-(spiro[indole-3,4′-piperidin]-1(2H)-yl)phenyl]urea]
IC50 at 72 h (HCT116 cell cytotoxicity IC50): < 100 nM

Cc1c(Cc2ccc(F)cc2)c(C(=O)N2CCC(N3CCCCC3)CC2)nn1-c1ccc(NC(=O)NCc2cccnc2)cc1 [Compound 81, 1-{4-[3-(1,4′-Bipiperidin-1′-ylcarbonyl)-4-(4-fluorobenzyl)-5-methyl-1H-pyrazol-1-yl]phenyl}-3-(pyridin-3-ylmethyl)urea]
IC50 at 72 h (HCT116 cell cytotoxicity IC50): ≥ 100 nM

O=C(NCc1cccnc1)Nc1ccc(-n2cc(C3CCN(CC(F)(F)F)CC3)c3ccccc32)cc1 [Compound 82, 1-(Pyridin-3-ylmethyl)-3-(4-{3-[1-(2,2,2-trifluoroethyl)piperidin-4-yl]-1H-indol-1-yl}phenyl)urea]
IC50 at 72 h (HCT116 cell cytotoxicity IC50): < 100 nM

COC(=O)c1cn(Cc2ccccc2)c2cc(NC(=O)NCc3cccnc3)ccc12 [Compound 83, Methyl 1-benzyl-6-{[(pyridin-3-ylmethyl)carbamoyl]ami-no}-1H-indole-3-carboxylate]
IC50 at 72 h [1]: ≥ 100 nM

O=C(NCc1cccnc1)Nc1ccc(-n2nc(CC(=O)N3CCCCC3)c3ccccc32)cc1 [Compound 84, 1-(4-{3-[2-Oxo-2-(piperidin-1-yl)ethyl]-1H-indazol-1-yl}phenyl)-3-(pyridin-3-ylmethyl)urea]
IC50 at 72 h [1]: < 100 nM

COc1cccc(-c2cn(-c3ccc(NC(=O)NCc4cccnc4)cc3)nc2C(=O)N2CCC(N3CCCCC3)CC2)c1 [Compound 85, 1-{4-[3-(1,4′-Bipiperidin-1′-ylcarbonyl)-4-(3-methoxyphenyl)-1H-pyrazol-1-yl]phenyl}-3-(pyridin-3-ylmethyl)urea]
IC50 at 72 h [1]: < 100 nM

O=C(NCc1cccnc1)Nc1ccc(-n2nc(N3CCN(C4CCCCC4)CC3)c3ccccc32)cc1 [Compound 86, 1-{4-[3-(4-Cyclo-hexylpiperazin-1-yl)-1H-indazol-1-yl]phenyl}-3-(pyridin-3-ylmethyl)urea]
IC50 at 72 h [1]: < 100 nM

CC(C)(C)OC(=O)N1CCC(CCn2ccnc2-c2cn(-c3ccc(NC(=O)NCc4cccnc4)cc3)c3ccccc23)CC1 [Compound 87, tert-Butyl 4-(2-{2-[1-(4-{[(pyridin-3-yl-methyl)carbamoyl]amino}phenyl)-1H-indol-3-yl]-1H-imidazol-1-yl}ethyl)piperidine-1-carboxylate]
IC50 at 72 h [1]: < 100 nM

O=C(NCc1cccnc1)Nc1ccc(-n2cc(C(=O)N3CCC(O)CC3)c3ccccc32)c(Cl)c1 [Compound 88, 1-(3-Chloro-4-{3-[(4-hydroxy-piperidin-1-yl)carbonyl]-1H-indol-1-yl}phenyl)-3-(pyridin-3-ylmethyl)urea]
IC50 at 72 h (HCT116 cell cytotoxicity IC50): ≥ 100 nM

O=C(NCCCCCCc1c[nH]c2ccccc12)NCc1cccnc1 [Compound 89, 1-[6-(1H-Indol-3-yl)hexyl]-3-(pyridin-3-ylmethyl)urea]
IC50 at 72 h (HCT116 cell cytotoxicity IC50): ≥ 100 nM

O=C(NCCCCC(=O)c1cn(C2CCNCC2)c2ccccc12)NCc1cccnc1 [Compound 90, 1-{5-Oxo-5-[1-(piperidin-4-yl)-1H-indol-3-yl]pentyl}-3-(pyridin-3-ylmethyl)urea]
IC50 at 72 h [1]: < 100 nM

O=C(NCc1cccnc1)Nc1ccc(-c2nn(C3CNC3)c3ccccc23)cc1 [Compound 91, 1-{4-[1-(Azetidin-3-yl)-1H-indazol-3-yl]phenyl}-3-(pyridin-3-ylmethyl) urea]
IC50 at 72 h [1]: < 100 nM

O=C(NCc1cccnc1)Nc1ccc(-n2cc(C(=O)N3CCN(C4CCCCC4)CC3)c3ccccc32)c(Cl)c1 [Compound 92, 1-(3-Chloro-4-{3-[(4-cyclohexyl-piperazin-1-yl)carbonyl]-1H-indol-1-yl}phenyl)-3-(pyridin-3-ylmethyl)urea]
IC50 at 72 h [1]: < 100 nM

Cc1c(C(=O)N2CCN(C3CCC(F)(F)CC3)CC2)c2ccccc2n1-c1ccc(NC(=O)NCc2cccnc2)cc1 [Compound 93, 1-[4-(3-{[4-(4,4-Difluoro-cyclohexyl)pipe-razin-1-yl]carbonyl}-2-methyl-1H-indol-1-yl)phenyl]-3-(pyridin-3-ylmethyl)urea]
IC50 at 72 h [1]: < 100 nM

O=C(NCc1cccnc1)Nc1ccc(-n2cc([C@H]3CC[C@@H](N4CC(F)(F)C4)CC3)c3ccccc32)cc1 [Compound 94, 1-[4-[3-[4-(3,3-difluoroazetidin-1-yl)cyclohexyl]indol-1-yl]phenyl]-3-(3-pyridylmethyl)urea]
IC50 at 72 h [1]: < 100 nM

CCN1CCN(C(=O)c2cn(-c3ccc(NC(=O)NCc4cccnc4)cc3Cl)c3ccccc23)CC1 [Compound 95, 1-(3-Chloro-4-{3-[(4-ethylpiperazin-1-yl)carbonyl]-1H-indol-1-yl}phenyl)-3-(pyridin-3-ylmethyl)urea]
IC50 at 72 h [1]: < 100 nM

O=C(NCc1cccnc1)Nc1ccc2c(c1)c(C(=O)NCCCN1CCCCC1)cn2Cc1ccccc1 [Compound 96, 1-Benzyl-N-[3-(piperidin-1-yl)propyl]-5-{[(pyridin-3-yl-methyl)carbamoyl]amino}-1H-indole-3-carboxamide]
IC50 at 72 h [1]: ≥ 100 nM

O=C(NCCCCCCC1CNc2ccccc21)NCc1cccnc1 (stereo not shown) [Compound 97, 1-[6-(2,3-Dihydro-1H-indol-3-yl)hexyl]-3-(pyridin-3-ylmethyl)urea]
IC50 at 72 h [1]: < 100 nM

O=C(NCc1cccnc1)Nc1ccc(-n2nc(N3CCNCC3)c3ccccc32)cc1 [Compound 98, 1-{4-[3-(Piperazin-1-yl)-1H-indazol-1-yl]phenyl}-3-(pyridin-3-ylmethyl)urea]
IC50 at 72 h [1]: < 100 nM

O=C(NCc1cccnc1)Nc1ccc(-n2cc(C3CCN(CCF)CC3)c3ccccc32)cc1 [Compound 99, 1-(4-{3-[1-(2-Fluoroethyl)piperidin-4-yl]-1H-indol-1-yl}phenyl)-3-(pyridin-3-ylmethyl)urea]
IC50 at 72 h [1]: < 100 nM

O=C(NCc1cccnc1)Nc1ccc(-n2cc(CCN3CCOCC3)c3ccccc32)cc1 [Compound 100, 1-(4-{3-[2-(Morpholin-4-yl)ethyl]-1H-indol-1-yl}phenyl)-3-(pyridin-3-ylmethyl)urea]
IC50 at 72 h [1]: < 100 nM

CN1CCN(C(=O)Cc2cn(-c3ccc(NC(=O)NCc4cccnc4)cc3)c3ccccc23)CC1 [Compound 101, 1-(4-{3-[2-(4-Methylpiperazin-1-yl)-2-oxoethyl]-1H-indol-1-yl}phenyl)-3-(pyridin-3-ylmethyl)urea]
IC50 at 72 h [1]: < 100 nM

O=C(NCc1cccnc1)Nc1ccc(-n2cc(-c3nccn3CCN3CCOCC3)c3ccccc32)cc1 [Compound 102, 1-[4-(3-{1-[2-(Morpholin-4-yl)ethyl]-1H-imidazol-2-yl}-1H-indol-1-yl)phenyl]-3-(pyridin-3-ylmethyl)urea]
IC50 at 72 h [1]: < 100 nM

O=C(NCc1cncc(F)c1)Nc1ccc(-n2cc(CCN3CCOCC3)c3ccccc32)cc1 [Compound 103, 1-[(5-Fluoro-pyridin-3-yl)methyl]-3-(4-{3-[2-(morpholin-4-yl)ethyl]-1H-indol-1-yl}phenyl)urea]
IC50 at 72 h [1]: < 100 nM
